Laboratory results: patent US8309726B2, “Substituted piperazine compounds of formula 8” (Council of Scientific & Industrial Research, priority 2007, dated 2012)

What was measured:
[1] = system: Renal cancer cell lines; assay: In vitro cytotoxicity, renal panel; assay type: cell-based; details: Homo sapiens, average of six to nine different cancer cell lines, 48 h, SRB, read-out: Log GI50 (concentration in mol/L causing 50% growth inhibition) (converted)
Method: (§1) In vitro evaluation of cytotoxic activity: Compounds were evaluated for in vitro anticancer activity against sixty human tumour cells derived from nine cancer types (colon, prostate, oral, lung, cervix and breast cancer) as shown in (Table 1, 2 and 3) 8b, 8c, 8d, and 8e, were evaluated for in vitro anticancer activity against sixty human tumour cells derived from nine cancer types (leukemia, non-small-cell lung, colon, CNS, melanoma, ovarian, prostate, and breast cancer) as shown in (Table 2 and 3). For the compound, dose response curves for each cell line were measured at a minimum of five concentrations at 10 fold dilutions. A protocol of 48 h continuous drug exposure was used and a sulforhodamine B (SRB) protein assay was used to estimate cell viability or growth. The concentration causing 50% cell growth inhibition (GI50), total cell growth inhibition (TGI 0% growth) and 50% cell death (LC50, −50% growth) compared with the control was calculated. The mean graph midpoint values of log10 TGI and log10 LC50 as well as log10 GI50 for 8a, 8b, 8c, 8d, and 8e, are listed in (Table 2 and 3).
(§2) Each cancer type represents the average of six to nine different cancer cell lines. The compounds 8a, 8b, 8c, 8d, 8e and 8f were evaluated for in vitro anticancer activity against sixty human tumour cells derived from nine cancer types (leukemia, colon, prostate, renal melanoma CNS, lung, cervix and breast cancer) as shown in Table 3. Compounds 8b, 8c, 8d and 8e show promising cytotoxicity against some cancer cell lines (Table 2). Compounds 8b, 8c, 8d and 8e have been evaluated for their in vitro cytotoxicity in selected human cancer cell lines of colon (Colo205), lung (Hop-62), cervix (SiHa), prostate (DU145, PC3), oral (DWD, HT1080), and breast (MCF7, Zr-75-1) origin. A protocol of 48 h continuous drug exposure has been used and an […] has been used to estimate cell viability or growth. The results are expressed as percent of cell growth determined relative to that of untreated control cells. […] In the breast cancer panel, the growth of BT-549, MCF-7 cell lines are 10.3, and 17.6. In the prostate cancer panel, the growth of DU-145, PC-3 cell lines are 11.3, and 19.2. The GI50 values of compound In the CNS cancer panel, the growth of SF-539, SNB-75 cell lines are […]. […] In vitro cytotoxicity of compounds 8a, and 8b in selected cancer cell lines has been illustrated in Table 3. The average GI50 values for each cancer panel of compounds 8b, 8c, 8d and 8e have been illustrated in above Table 2 and 3

[2] = system: Breast cancer cell lines; assay: In vitro cytotoxicity, breast panel; assay type: cell-based; details: Homo sapiens, average of six to nine different cancer cell lines, 48 h, SRB, read-out: Log GI50 (concentration in mol/L causing 50% growth inhibition) (converted)
Method: as §1, §2

[3] = system: Colon cancer cell lines; assay: In vitro cytotoxicity, colon panel; assay type: cell-based; details: Homo sapiens, average of six to nine different cancer cell lines, 48 h, SRB, read-out: Log GI50 (concentration in mol/L causing 50% growth inhibition) (converted)
Method: as §1, §2

[4] = system: calf thymus (CT) DNA; assay: Thermal denaturation studies with duplex-form calf thymus DNA; assay type: binding; details: for ΔTm (° C.) after incubation at 37° C. for 0 h / ΔTm (° C.) after incubation at 37° C. for 18 h / ΔTm (° C.) after incubation at 37° C. for 36 h: [ANCD]/[DNA] molar ratio 1:5, CT-DNA 100 μM, ligand 20 μM, sodium phosphate buffer pH 7.00; for ΔTm (° C.) after incubation at 37° C. for 0 h: 0 h at 37° C.; for ΔTm (° C.) after incubation at 37° C. for 18 h: 18 h at 37° C.; for ΔTm (° C.) after incubation at 37° C. for 36 h: 36 h at 37° C.; for Course of ΔTm over incubation at 0 hr, 18 hr and 36 hr: incubation at 37° C., [ANCD]/[DNA] 1:5
Method: Compounds were subjected to thermal denaturation studies with duplex-form calf thymus DNA (CT-DNA) using an adaptation of a reported procedure. Working solutions in aqueous buffer (10 mM NaH2PO4/Na2HPO4, 1 mM Na2EDTA, pH 7.00+/−0.01) containing CT-DNA (100 μM in phosphate) and the PBD (20 μM) were prepared by addition of concentrated ANCD solutions in DMSO to obtain a fixed [ANCD]/[DNA] molar ratio of 1:5. The DNA-ANCD solutions were incubated at 37° C. for 0, 18, and 36 h prior to analysis. Samples were monitored at 260 nm using a Beckman DU-7400 spectrophotometer fitted with high performance temperature controller, and heating was applied at 1° C. min^−1 in the 40-90° C. range. DNA helix coil transition temperatures (Tm) were obtained from the maxima in the (dA260)/dT derivative plots. Results are given as the mean+/−standard deviation from three determinations and are corrected for the effects of DMSO co-solvent using a linear correction term. Drug-induced alterations in DNA melting behaviour are given by: ΔTm=Tm (DNA+ANCD)−Tm (DNA alone), where the Tm value for the ANCD-free CT-DNA is 69.0+/−0.01.

[5] = system: Prostate cancer cell lines; assay: In vitro cytotoxicity, prostate panel; assay type: cell-based; details: Homo sapiens, average of six to nine different cancer cell lines, 48 h, SRB, read-out: Log GI50 (concentration in mol/L causing 50% growth inhibition) (converted)
Method: as §1, §2

[6] = system: Nonsmall-cell-lung cancer cell lines; assay: In vitro cytotoxicity, non-small-cell lung panel; assay type: cell-based; details: Homo sapiens, average of six to nine different cancer cell lines, 48 h, SRB, read-out: Log GI50 (concentration in mol/L causing 50% growth inhibition) (converted)
Method: as §1, §2

[7] = system: Melanoma cancer cell lines; assay: In vitro cytotoxicity, melanoma panel; assay type: cell-based; details: Homo sapiens, average of six to nine different cancer cell lines, 48 h, SRB, read-out: Log GI50 (concentration in mol/L causing 50% growth inhibition) (converted)
Method: as §1, §2

[8] = system: human tumour cell lines; assay: In vitro anticancer activity against sixty human tumour cell lines (NCI, SRB assay); assay type: cell-based; details: for Log10LC50 mean graph midpoint (MG_MID): 50% cell death; for Log10LC50 mean graph midpoint (MG_MID) / Log10GI50 mean graph midpoint (MG_MID) / Log10TGI50 mean graph midpoint (MG_MID): 48 h continuous drug exposure, SRB assay; for Log10GI50 mean graph midpoint (MG_MID): 50% cell growth inhibition; for antiproliferative activity: against most of the tested cell lines; for Log10TGI50 mean graph midpoint (MG_MID): total cell growth inhibition; for GI50: Homo sapiens
Method: as §1, §2

[9] = system: Ovarian cancer cell lines; assay: In vitro cytotoxicity, ovarian panel; assay type: cell-based; details: Homo sapiens, average of six to nine different cancer cell lines, 48 h, SRB, read-out: Log GI50 (concentration in mol/L causing 50% growth inhibition) (converted)
Method: as §1, §2

[10] = system: CNS cancer cell lines; assay: In vitro cytotoxicity, CNS panel; assay type: cell-based; details: Homo sapiens, average of six to nine different cancer cell lines, 48 h, SRB, read-out: Log GI50 (concentration in mol/L causing 50% growth inhibition) (converted)
Method: as §1, §2

[11] = system: Leukemia cancer cell lines; assay: In vitro cytotoxicity, leukemia panel; assay type: cell-based; details: Homo sapiens, average of six to nine different cancer cell lines, 48 h, SRB, read-out: Log GI50 (concentration in mol/L causing 50% growth inhibition) (converted)
Method: as §1, §2

[12] = system: CNS SF-295, SF-539, SNB-19 and SNB-75 cell lines; assay: In vitro cytotoxicity, CNS cell lines SF-295, SF-539, SNB-19, SNB-75; assay type: cell-based; details: Homo sapiens; range over CNS SF-295, SF-539, SNB-19 and SNB-75
Method: (§3) In vitro evaluation of cytotoxic activity: Compounds were evaluated for in vitro anticancer activity against sixty human tumour cells derived from nine cancer types (colon, prostate, oral, lung, cervix and breast cancer) as shown in (Table 1, 2 and 3) 8b, 8c, 8d, and 8e, were evaluated for in vitro anticancer activity against sixty human tumour cells derived from nine cancer types (leukemia, non-small-cell lung, colon, CNS, melanoma, ovarian, prostate, and breast cancer) as shown in (Table 2 and 3). For the compound, dose response curves for each cell line were measured at a minimum of five concentrations at 10 fold dilutions. […]
(§4) Each cancer type represents the average of six to nine different cancer cell lines. The compounds 8a, 8b, 8c, 8d, 8e and 8f were evaluated for in vitro anticancer activity against sixty human tumour cells derived from nine cancer types (leukemia, colon, prostate, renal melanoma CNS, lung, cervix and breast cancer) as shown in Table 3. […] Compounds 8b, 8c, 8d and 8e have been evaluated for their in vitro cytotoxicity in selected human cancer cell lines of colon (Colo205), lung (Hop-62), cervix (SiHa), prostate (DU145, PC3), oral (DWD, HT1080), and breast (MCF7, Zr-75-1) origin. […] The results are expressed as percent of cell growth determined relative to that of untreated control cells. […]

[13] = system: HCT-116 cell line (colon cancer); assay: In vitro cytotoxicity, HCT-116; assay type: cell-based; details: Homo sapiens; colon cancer HCT-116
Method: as §3, §4

[14] = system: MCF-7 cell line (breast cancer); assay: In vitro cytotoxicity, MCF-7; assay type: cell-based; details: Homo sapiens, MCF7; MCF-7, breast cancer cell panel; read-out: GI50
Method: as §3, §4

[15] = system: COLO 205 cell line (colon cancer); assay: In vitro cytotoxicity, COLO 205; assay type: cell-based; details: Homo sapiens; colon cancer COLO 205
Method: as §3, §4

[16] = system: renal and prostate cancer panels; assay: In vitro cytotoxicity, renal and prostate cancer panels; assay type: cell-based; details: Homo sapiens; range over renal and prostate cancer panels
Method: as §3, §4

[17] = system: KM12 cell line (colon cancer); assay: In vitro cytotoxicity, KM12; assay type: cell-based; details: Homo sapiens
Method: as §3, §4

[18] = system: T47D cell line (breast cancer); assay: In vitro cytotoxicity, T47D; assay type: cell-based; details: Homo sapiens, breast cancer cell panel
Method: as §3, §4

[19] = sixty cell lines in nine cell panels

Compound	GI50 [1]	GI50 [2]	GI50 [3]	ΔTm (° C.) after incubation at 37° C. for 0 h [4]	ΔTm (° C.) after incubation at 37° C. for 18 h [4]	ΔTm (° C.) after incubation at 37° C. for 36 h [4]	Course of ΔTm over incubation at 0 hr, 18 hr and 36 hr [4]	GI50 [5]	GI50 [6]	GI50 [7]	Log10LC50 mean graph midpoint (MG_MID) [8]	Log10GI50 mean graph midpoint (MG_MID) [8]	antiproliferative activity [8]	Log10TGI50 mean graph midpoint (MG_MID) [8]	GI50 [9]	GI50 [10]	GI50 [11]	GI50 [8, 19]	other results
COc1cc(C(=O)N2CCN(c3ncccn3)CC2)c(N)cc1OCc1ccccc1 [Compound 8c, [2-amino-4-(benzyloxy)-5-methoxyphenyl][4-(2-pyrimidinyl)piperazino]methanone]	5.62 µM	6.76 µM	3.39 µM	1.4 °C	1.6 °C	2.3 °C	gradually increased	16.6 µM	7.24 µM	1.78 µM	−4.47	−5.47	nanomolar to low micromolar concentrations	−5.47	5.75 µM	5.89 µM	5.5 µM	–	–
COc1cc(C(=O)Nc2ccc(S(=O)(=O)c3ccc(NC(=O)c4cc(OC)c(OCc5ccccc5)cc4N)cc3)cc2)c(N)cc1OCc1ccccc1 [Compound 8h, N1-4-[(4-[2-amino-4-(benzyloxy)-5-methoxybenzoyl]aminophenyl)sulfonyl]phenyl-2-amino-4-(benzyloxy)-5-methoxybenzamide]	–	–	–	1.5 °C	2.3 °C	2.4 °C	gradually increased	–	–	–	–	–	–	–	–	–	–	–	–
COc1cc(C(=O)N2CCN(c3ccccc3OC)CC2)c(N)cc1OCCCN1CCN(c2ccccc2OC)CC1 [Compound 11, (2-amino-5-methoxy-4-3-[4-(2-methoxyphenyl)piperazino]propoxyphenyl)[4-(2-methoxyphenyl)piperazino]methanone]	–	–	–	1.4 °C	2.1 °C	2.1 °C	gradually increased	–	–	–	–	–	–	–	–	–	–	–	–
COc1cc(C(=O)N2CCN(c3ccccc3OC)CC2)c(N)cc1OCc1ccccc1 [Compound 8a, [2-amino-4-(benzyloxy)-5-methoxyphenyl][4-(2-methoxyphenyl)piperazino]methanone]	5.62 µM	3.39 µM	8.51 µM	1.2 °C	1.7 °C	2.2 °C	gradually increased	6.61 µM	3.63 µM	4.47 µM	−4.19	−5.47	nanomolar to low micromolar concentrations	−5.24	5.75 µM	5.89 µM	5.5 µM	< 20 µM	–
COc1cc2c(cc1O)N=CC1CCCN1C2=O (stereo not shown) [DC-81, reference compound]	–	–	–	0.3 °C	0.7 °C	–	–	–	–	–	–	–	–	–	–	–	–	–	–
COc1cc(C(=O)N2CCN(c3ccccc3OC)CC2)c(NC(=O)c2cnccn2)cc1OCc1ccccc1 [Compound 8f, (4-(Benzyloxy)-5-methoxy-2-(pyrazine-2-carbamido)phenyl)(4-(2-methoxyphenyl)piperazin-1-yl)methanone]	–	–	–	1.3 °C	2.1 °C	3.0 °C	gradually increased	–	–	–	–	–	–	–	–	–	–	–	–
COc1cc(C(=O)NC2c3ccccc3-c3ccccc32)c(N)cc1OCc1ccccc1 [Compound 8e, N1-(9H-9-fluorenyl)-2-amino-4-(benzyloxy)-5-methoxybenzamide]	15.1 µM	≤ 0.01 µM	1.7 µM	1.9 °C	2.3 °C	2.8 °C	gradually increased	0.355 µM	1.38 µM	1.78 µM	−4.19	−6.47	nanomolar to low micromolar concentrations	−6.06	10 µM	5.5 µM	4.27 µM	< 20 µM	GI50 ([8]; fifty-seven cell lines in nine cancer cell panels): < 10 µM
{2-amino-5-(methyloxy)-4[(phenylmethyl)oxy]phenyl}[4-({2-amino-5-(methyloxy)-4-[(phenylmethyl)oxy]phenyl}carbonyl)hexahydro-1-piperazinyl]methanone [Compound 8g]	–	–	–	1.6 °C	2.6 °C	2.9 °C	gradually increased	–	–	–	–	–	–	–	–	–	–	–	–
COc1cc(C(=O)N2CCN(c3ncnc4ccccc34)CC2)c(N)cc1OCc1ccccc1 [Compound 8d, [2-amino-4-(benzyloxy)-5-methoxyphenyl][4-(4-quinazolinyl)piperazino]methanone]	5.5 µM	7.08 µM	5.13 µM	1.5 °C	1.9 °C	2.7 °C	gradually increased	7.24 µM	1.35 µM	7.24 µM	−4.62	−5.62	nanomolar to low micromolar concentrations	−5.62	11.7 µM	1.78 µM	4.07 µM	< 20 µM	GI50 [12]: 11.8 to 24.2 µM; GI50 [13]: 16.3 µM; GI50 [14]: 12.6 µM; GI50 [15]: 11.2 µM; GI50 [16]: 1.16 to 32.4 µM; GI50 [17]: 14.6 µM; GI50 [18]: 13.2 µM
